Measurements reported in ChEMBL document CHEMBL1123796, “New antitumor agents containing the anthracene nucleus” (1987).

Columns and labels:
Type in all cases: functional
[1] = In vitro inhibition of human UACC-66 ovarian tumor cell line growth.; conditions: read-out: ID50 (the source's name)
WiDr = assay: Tested in vitro for inhibitory activity of human tumor cell growth against WIDR colon tumor, by using clonogenic assays.; conditions: read-out: ID50 (the source's name)
[2] = Tested in vitro for inhibitory activity of human tumor cell growth against HEC 1A endometrial tumor, by using clonogenic assays.; conditions: read-out: ID50 (the source's name)
RPMI-8226 [3] = assay: In vitro inhibition of human 8226 myeloma tumor cell line growth.; conditions: read-out: ID50 (the source's name)
P388 [4] = assay: Antileukemic activity against P-388/ADR (P-388 cells resistant to adriamycin) n mice at a dose of 67 mg/kg administered intraperitoneally after 3 day treatment(Trial 2); conditions: Mus musculus, P388, ip, 72 h, route intraperitoneal
P388 [5] = assay: Antileukemic activity against P-388 in mice at a dose of 30 mg/kg administered intraperitoneally after 3 day treatment(Trial 2); conditions: Mus musculus, P388, ip, 72 h, route intraperitoneal
P388 [6] = assay: Antileukemic activity against P-388 in mice at a dose of 67 mg/kg administered intraperitoneally after 3 day treatment(Trial 2); conditions: Mus musculus, P388, ip, 72 h, route intraperitoneal
P388 [7] = assay: Antileukemic activity against P-388 in mice at a dose of 100 mg/kg administered intraperitoneally after 3 day treatment; conditions: Mus musculus, P388, ip, 72 h, route intraperitoneal
P388 [8] = assay: Antileukemic activity against P-388 in mice at a dose of 44 mg/kg administered intraperitoneally after 3 day treatment; conditions: Mus musculus, P388, ip, 72 h, route intraperitoneal
P388 [9] = assay: Antileukemic activity against P-388 in mice at a dose of 100 mg/kg administered intraperitoneally after 3 day treatment(Trial 2); conditions: Mus musculus, P388, ip, 72 h, route intraperitoneal
P388 [10] = assay: Antileukemic activity against P-388/ADR (P-388 cells resistant to adriamycin) in mice at a dose of 44 mg/kg administered intraperitoneally after 3 day treatment(Trial 2); conditions: Mus musculus, P388, ip, 72 h, route intraperitoneal
P388 [11] = assay: Antileukemic activity against P-388/ADR (P-388 cells resistant to adriamycin) in mice at a dose of 30 mg/kg administered intraperitoneally after 3 day treatment(Trial 2); conditions: Mus musculus, P388, ip, 72 h, route intraperitoneal
P388 [12] = assay: Antileukemic activity against P-388/ADR (P-388 cells resistant to adriamycin) in mice at a dose of 100 mg/kg administered intraperitoneally after 3 day treatment(Trial 2); conditions: Mus musculus, P388, ip, 72 h, route intraperitoneal
P388 [13] = assay: Antileukemic activity against P-388 in mice at a dose of 125 mg/kg administered intraperitoneally after 3 day treatment; conditions: Mus musculus, P388, ip, 72 h, route intraperitoneal
P388 [14] = assay: Antileukemic activity against P-388 in mice at a dose of 44 mg/kg administered intraperitoneally after 3 day treatment(Trial 2); conditions: Mus musculus, P388, ip, 72 h, route intraperitoneal
P388 [15] = assay: Antileukemic activity against P-388 in mice at a dose of 67 mg/kg administered intraperitoneally after 3 day treatment; conditions: Mus musculus, P388, ip, 72 h, route intraperitoneal
L1210 [16] = assay: Effect on DNA synthesis was determined by incorporation of radioligand into L1210 murine leukemia at a concentration of 0.1 ug/mL; conditions: Mus musculus
RPMI-8226 [17] = assay: Effect on RNA synthesis was determined by incorporation of radioligand into 8226 human myeloma cells at a concentration of 1 ug/mL. (*: >50% cell kill)
L1210 [18] = assay: Effect on DNA synthesis was determined by incorporation of radioligand into L1210 murine leukemia at a concentration of 0.01 ug/mL; conditions: Mus musculus
RPMI-8226 [19] = assay: Effect on DNA synthesis was determined by incorporation of radioligand into 8226 human myeloma cells at a concentration of 0.1 ug/mL
RPMI-8226 [20] = assay: Effect on protein synthesis was determined by incorporation of radioligand into 8226 human myeloma cells at a concentration of 0.1 ug/mL
L1210 [21] = assay: Effect on DNA synthesis was determined by incorporation of radioligand into L1210 murine leukemia at a concentration of 10 ug/mL (*: >1 log cell kill); conditions: Mus musculus
L1210 [22] = assay: Effect on protein synthesis was determined by incorporation of radioligand into L1210 murine leukemia at a concentration of 1 ug/mL. (*: >50% cell kill); conditions: Mus musculus
L1210 [23] = assay: Effect on protein synthesis was determined by incorporation of radioligand into L1210 murine leukemia at a concentration of 0.1 ug/mL; conditions: Mus musculus
RPMI-8226 [24] = assay: Effect on DNA synthesis was determined by incorporation of radioligand into 8226 human myeloma cells at a concentration of 1 ug/mL. (*: >50% cell kill)
RPMI-8226 [25] = assay: Effect on protein synthesis was determined by incorporation of radioligand into 8226 human myeloma cells at a concentration of 0.01 ug/mL
RPMI-8226 [26] = assay: Effect on protein synthesis was determined by incorporation of radioligand into 8226 human myeloma cells at a concentration of 10 ug/mL (*: >1 log cell kill)
L1210 [27] = assay: Effect on DNA synthesis was determined by incorporation of radioligand into L1210 murine leukemia at a concentration of 1 ug/mL. (*: >50% cell kill); conditions: Mus musculus
L1210 [28] = assay: Effect on protein synthesis was determined by incorporation of radioligand into L1210 murine leukemia at a concentration of 10 ug/mL (*: >1 log cell kill); conditions: Mus musculus
RPMI-8226 [29] = assay: Effect on DNA synthesis was determined by incorporation of radioligand into 8226 human myeloma cells at a concentration of 0.01 ug/mL
L1210 [30] = assay: Effect on RNA synthesis was determined by incorporation of radioligand into L1210 murine leukemia at a concentration of 1 ug/mL. (*: >50% cell kill); conditions: Mus musculus
L1210 [31] = assay: Effect on protein synthesis was determined by incorporation of radioligand into L1210 murine leukemia at a concentration of 0.01 ug/mL; conditions: Mus musculus
RPMI-8226 [32] = assay: Effect on DNA synthesis was determined by incorporation of radioligand into 8226 human myeloma cells at a concentration of 10 ug/mL (*: >1 log cell kill)
L1210 [33] = assay: Effect on RNA synthesis was determined by incorporation of radioligand into L1210 murine leukemia at a concentration of 10 ug/mL (*: >1 log cell kill); conditions: Mus musculus
RPMI-8226 [34] = assay: Effect on RNA synthesis was determined by incorporation of radioligand into 8226 human myeloma cells at a concentration of 0.01 ug/mL
RPMI-8226 [35] = assay: Effect on RNA synthesis was determined by incorporation of radioligand into 8226 human myeloma cells at a concentration of 10 ug/mL (*: >1 log cell kill)
RPMI-8226 [36] = assay: Effect on protein synthesis was determined by incorporation of radioligand into 8226 human myeloma cells at a concentration of 1 ug/mL. (*: >50% cell kill)
RPMI-8226 [37] = assay: Effect on RNA synthesis was determined by incorporation of radioligand into 8226 human myeloma cells at a concentration of 0.1 ug/mL
L1210 [38] = assay: Effect on RNA synthesis was determined by incorporation of radioligand into L1210 murine leukemia at a concentration of 0.1 ug/mL; conditions: Mus musculus
L1210 [39] = assay: Effect on RNA synthesis was determined by incorporation of radioligand into L1210 murine leukemia at a concentration of 0.01 ug/mL; conditions: Mus musculus

`NCCN(CCO)Cc1c2ccccc2c(CN(CCN)CCO)c2ccccc12` showed an IC50 [1] of 5.76 µM and an IC50 (WiDr) of 5.04 µM.

`c1ccc2c(CC3=NCCN3)c3ccccc3c(CC3=NCCN3)c2c1` showed an IC50 [1] of 4.36 µM and an IC50 [2] of 5.6 µM.

With `CN(C)CCCNCc1c2ccccc2c(CNCCCN(C)C)c2ccccc12` the IC50 (RPMI-8226 [3]) was 11 µM and the IC50 [2] was 56.8 µM.

With `CCN1CCCC(NCc2c3ccccc3c(CNC3CCCN(CC)C3)c3ccccc23)C1` (configuration not stated) the IC50 (RPMI-8226 [3]) was 0.04 µM and the IC50 (WiDr) was 5.63 µM.

`c1ccc2c(CNCCN3CCOCC3)c3ccccc3c(CNCCN3CCOCC3)c2c1` gave an IC50 [1] of 0.03 µM, an ILS at 67 mg/kg (P388 [4]) of 15% and an ILS at 30 mg/kg (P388 [5]) of 4%. The ILS at 67 mg/kg (P388 [6]) was 9%, the ILS at 100 mg/kg (P388 [7]) was -34% and the ILS at 44 mg/kg (P388 [8]) was 28%. It also gave an ILS at 100 mg/kg (P388 [9]) of 9%, an ILS at 44 mg/kg (P388 [10]) of 15% and an ILS at 30 mg/kg (P388 [11]) of 5%. The ILS at 100 mg/kg (P388 [12]) was 40%, the ILS at 125 mg/kg (P388 [13]) was -81% and the IC50 (RPMI-8226 [3]) was 0.02 µM. The ILS at 44 mg/kg (P388 [14]) was -5%, the ILS at 67 mg/kg (P388 [15]) was 33% and the IC50 (WiDr) was 0.02 µM.

With `OCCCCCNCc1c2ccccc2c(CNCCCCCO)c2ccccc12` the IC50 [1] was 24.7 µM, the IC50 (RPMI-8226 [3]) was 4.67 µM and the IC50 (WiDr) was 13.4 µM.

In the case of `OCCOCCNCc1c2ccccc2c(CNCCOCCO)c2ccccc12`, the IC50 [1] is reported as 6.57 µM, the IC50 (RPMI-8226 [3]) is reported as 0.23 µM and the IC50 (WiDr) is reported as 2.91 µM.

With `CN1CCN(Cc2c3ccccc3c(CN3CCN(C)CC3)c3ccccc23)CC1` the IC50 (RPMI-8226 [3]) was 0.1 µM and the IC50 (WiDr) was 10.4 µM.

With `CN(C)CCN(C)Cc1c2ccccc2c(CN(C)CCN(C)C)c2ccccc12` the IC50 [1] was 0.7 µM, the IC50 (RPMI-8226 [3]) was 0.29 µM and the IC50 (WiDr) was 0.14 µM.

For `OCCNCc1c2ccccc2c(CNCCO)c2ccccc12`, the IC50 [1] was 74.9 µM and the IC50 (RPMI-8226 [3]) was 27.8 µM.

Work on `NCCNCc1c2ccccc2c(CNCCN)c2ccccc12` yielded an IC50 [1] of 4.14 µM, an IC50 (RPMI-8226 [3]) of 692 µM and an IC50 (WiDr) of 0.42 µM.

Work on `CC(C)N(CCNCc1c2ccccc2c(CNCCN(C(C)C)C(C)C)c2ccccc12)C(C)C` yielded an IC50 (RPMI-8226 [3]) of 7.63 µM and an IC50 (WiDr) of 15.5 µM.

`C(=N\Nc1nccs1)/c1c2ccccc2c(/C=N/Nc2nccs2)c2ccccc12` showed an IC50 [1] of 8.8 µM, an IC50 (RPMI-8226 [3]) of 6.26 µM and an IC50 [2] of 200 µM. It also gave an IC50 (WiDr) of 5.9 µM.

Compound `OCCCNCc1c2ccccc2c(CNCCCO)c2ccccc12` has an IC50 [1] of 18.2 µM.

Work on `CNCCN(C)Cc1c2ccccc2c(CN(C)CCNC)c2ccccc12` yielded an IC50 [1] of 3.42 µM, an IC50 (RPMI-8226 [3]) of 3.51 µM and an IC50 (WiDr) of 1.93 µM.

Work on `C(=N\NC1=NCCN1)/c1c2ccccc2c(/C=N/NC2=NCCN2)c2ccccc12` [BISANTRENE] yielded an inhibition at 0.1 µg/mL (L1210 [16]) of 9.3%, an IC50 [1] of 2.4 µM and an inhibition at 1 µg/mL (RPMI-8226 [17]) of 91.6%. It also gave an inhibition at 0.01 µg/mL (L1210 [18]) of 1.8%, an inhibition at 0.1 µg/mL (RPMI-8226 [19]) of 33.3% and an inhibition at 0.1 µg/mL (RPMI-8226 [20]) of 20.2%. It also gave an inhibition at 10 µg/mL (L1210 [21]) of 66.8%, an inhibition at 1 µg/mL (L1210 [22]) of 48.5% and an inhibition at 0.1 µg/mL (L1210 [23]) of 5.6%. It also gave an inhibition at 1 µg/mL (RPMI-8226 [24]) of 79.9%, an inhibition at 0.01 µg/mL (RPMI-8226 [25]) of 0% and an inhibition at 10 µg/mL (RPMI-8226 [26]) of 63.5%. The inhibition at 1 µg/mL (L1210 [27]) was 43.6%, the inhibition at 10 µg/mL (L1210 [28]) was 89% and the inhibition at 0.01 µg/mL (RPMI-8226 [29]) was 0%. The IC50 (RPMI-8226 [3]) was 0.23 µM, the inhibition at 1 µg/mL (L1210 [30]) was 21.7% and the inhibition at 0.01 µg/mL (L1210 [31]) was 0%. It also gave an inhibition at 10 µg/mL (RPMI-8226 [32]) of 97.7%, an inhibition at 10 µg/mL (L1210 [33]) of 96.1% and an IC50 [2] of 0.38 µM. The inhibition at 0.01 µg/mL (RPMI-8226 [34]) was 0%, the inhibition at 10 µg/mL (RPMI-8226 [35]) was 92.9% and the inhibition at 1 µg/mL (RPMI-8226 [36]) was 41.9%. For the same compound, the inhibition at 0.1 µg/mL (RPMI-8226 [37]) was 21%, the IC50 (WiDr) was 0.44 µM and the inhibition at 0.1 µg/mL (L1210 [38]) was 24.1%. For the same compound, the inhibition at 0.01 µg/mL (L1210 [39]) was 0%.
